Assay [1] deals with T1, glucagon receptor (GCGR) overexpressed CHO-K1 cells or human primary hepatocytes (Homo sapiens, UniProt P47871).
T1 construct: expressed in transfected cells; host or cells: GCGR overexpressed CHO-K1 cells or human primary hepatocytes (endogenous receptor)
As to the kind of experiment: Glucagon cAMP inhibition assay (Cisbio cAMP Dynamic 2 HTRF). The format is cell-based. An outline of the steps:
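HTRF read-out of glucagon-induced cAMP, with IC50 from non-linear regression. Cells (GCGR CHO-K1 or human primary hepatocytes) in HBSS/0.1% BSA/800 nM IBMX took compound dilutions for 30 min (final DMSO 1%), then EC50-level glucagon for 30 min at room temperature, then a 60 min lysis/detection step.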

Assay [2] has as its target T2, glucagon receptor (GCGR) (Homo sapiens, UniProt P47871).
T2 construct: expressed in transfected cells; host or cells: CHO-K1 cells overexpressing GCGR (membrane fractions)
As to the kind of experiment: I125-glucagon binding assay (competition, GCGR membrane fractions). The procedure, abridged: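 Competition of 0.0625 nM (final) I^125-glucagon for 30 min at 25° C, after 5 min compound preincubation, using 7.5 μg/well GCGR-overexpressing CHO-K1 membranes in 50 mM Tris pH 7.4, 0.5% BSA. Filtration onto PEI-coated GF/B, micro-beta counting, and non-linear regression gave IC50.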

[3] abbreviates: inhibition of glucagon (EC50 concentration) induced cAMP production.
The mark [4] stands for this setting: competition with I125-glucagon 0.0625 nM, membrane fractions of GCGR overexpressed CHO-K1 cells.

Each structure is given as a SMILES string. Read-outs that look alike come from different tables or passages of the source.

T2 sequence (P47871 26-477): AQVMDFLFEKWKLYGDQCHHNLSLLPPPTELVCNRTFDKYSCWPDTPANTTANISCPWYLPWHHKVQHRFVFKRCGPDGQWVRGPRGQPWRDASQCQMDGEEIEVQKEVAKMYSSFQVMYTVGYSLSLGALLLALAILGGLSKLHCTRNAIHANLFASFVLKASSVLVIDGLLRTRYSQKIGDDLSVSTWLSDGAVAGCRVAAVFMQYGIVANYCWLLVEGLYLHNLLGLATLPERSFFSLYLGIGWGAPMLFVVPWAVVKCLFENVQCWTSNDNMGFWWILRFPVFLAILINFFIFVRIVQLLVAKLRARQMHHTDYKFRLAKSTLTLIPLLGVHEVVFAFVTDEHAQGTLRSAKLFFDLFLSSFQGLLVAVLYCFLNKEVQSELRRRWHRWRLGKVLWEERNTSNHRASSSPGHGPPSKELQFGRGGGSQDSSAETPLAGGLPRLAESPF
T1 sequence (P47871 26-477): as above

Regarding `CCOC(=O)CCNC(=O)c1ccc(N[C@H](Cc2ccc(-c3cc4ccccc4o3)cc2)C(=O)NC(C)C)cc1` [Compound 24-21, Ethyl (R)-3-(4-((3-(4-(benzofuran-2-yl)phenyl)-1-(isopropylamino)-1-oxopropan-2-yl)amino)benzamido)propanoate], the “IC50 cAMP” value in assay [1] (uM) is over 10 µM. The IC50 in assay [2] stood at 4.1 µM.

`CC(C)[C@@H](COc1ccc(-c2ccc(C(F)(F)F)cc2Cl)cn1)Nc1ccc(C(=O)NCCC(=O)O)cc1` [Compound 15-9, (S)-3-(4-((1-((5-(2-chloro-4-(trifluoromethyl)phenyl)pyridin-2-yl)oxy)-3-methylbutan-2-yl)amino)benzamido)propanoic Acid]: in assay [1], the “IC50 cAMP” value worked out at 0.0815 µM. In assay [2], this compound came in with an IC50 of 0.33 µM.

Turning to `CCCC[C@@H](COc1ccc(-c2ccc(Cl)cc2Cl)cn1)Nc1ccc(C(=O)NCCC(=O)O)cc1` [Compound 15-24, (S)-3-(4-((1-((5-(2,4-dichlorophenyl)pyridin-2-yl)oxy)hexan-2-yl)amino)benzamido)propanoic Acid], the “IC50 cAMP” value in assay [1] turned out to be 0.2939 µM. The same compound had an IC50 in assay [2] of 0.301 µM.

For `CC(C)[C@@H](COc1ccc(-c2ccc(C(F)(F)F)cc2)cn1)Nc1ccc(C(=O)NCCC(=O)O)cc1` [Compound 15-7, (S)-3-(4-((3-methyl-1-((5-(4-(trifluoromethyl)phenyl)pyridin-2-yl)oxy)butan-2-yl)amino)benzamido)propanoic Acid], the “IC50 cAMP” value in assay [1] came to 0.2588 µM. In addition, in assay [2], the IC50 was 0.753 µM.

For `CCCC[C@@H](COc1ccc(-c2ccc(C(F)(F)F)cc2Cl)c(F)c1)Nc1ccc(C(=O)NCCC(=O)O)cc1` [Compound 8-15, (S)-3-(4-((1-((2′-chloro-2-fluor-4′-(trifluromethyl)-[1,1′-biphenyl]-4-yl)oxy)hexan-2-yl)amino)benzamido)propanoic Acid], the “IC50 cAMP” value in assay [1] (setting [3]) came to 0.129 µM. This compound showed an IC50 in assay [2] (setting [4]) of 0.059 µM.

For the compound `CC(C)[C@@H](COc1ccc(-c2ccc(C(F)(F)F)cc2Cl)c(Cl)c1)Nc1ccc(C(=O)NCCC(=O)O)cc1` [Compound 3-4, (S)-3-(4-((1-((2,2′-dichloro-4′-(trifluoromethyl)-[1,1′-biphenyl]-4-yl)oxy)-3-methylbutan-2-yl)amino)benzamido)propanoic Acid], the “IC50 cAMP” value in assay [1] (setting [3]) stood at 0.3136 µM. Also, the IC50 in assay [2] (setting [4]) was found to be 0.017 µM.

For the compound `O=C(NCc1nn[nH]n1)c1ccc(N[C@H](COc2ccc(-c3cc4ccccc4o3)cn2)c2ccccc2)cc1` [Compound 15-1, (S)—N-((2H-tetrazol-5-yl)methyl)-4-((2-((5-(benzofuran-2-yl)pyridin-2-yl)oxy)-1-phenylethyl)amino)benzamide], the “IC50 cAMP” value in assay [1] is 7.356 µM. Besides, in assay [2], the IC50 is 0.388 µM.

With `CC(C)C[C@@H](COc1ccc(-c2ccc(C(F)(F)F)cc2)cn1)Nc1ccc(C(=O)NCCC(=O)O)cc1` [Compound 15-11, (S)-3-(4-((4-methyl-1-((5-(4-(trifluoromethyl)phenyl)pyridin-2-yl)oxy)pentan-2-yl)amino)benzamido)propanoic Acid], the “IC50 cAMP” value in assay [1] was 0.2847 µM. In assay [2], this compound yielded an IC50 of 0.21 µM.

Take `CCCC[C@@H](COc1ccc(-c2ccc(C(F)(F)F)cc2)c(Cl)c1)Nc1ccc(C(=O)NCc2nnn[nH]2)cc1` [Compound 3-17, (S)—N-((1H-tetrazol-5-yl)methyl)-4-((1-((2-chloro-4′-(trifluoromethyl)-[1,1′-biphenyl]-4-yl)oxy)hexan-2-yl)amino)benzamide]: the “IC50 cAMP” value in assay [1] (setting [3]) is 0.105 µM. In assay [2] (setting [4]), this compound gave an IC50 of 0.111 µM.

On to `CC[C@H](C)[C@@H](COc1ccc(-c2ccc(C(F)(F)F)cc2Cl)c(OC)c1)Nc1ccc(C(=O)NCCC(=O)O)cc1` [Compound 13-3, 3-(4-(((2S,3S)-1-((2′-chloro-2-methoxy-4′-(trifluoromethyl)-[1,1′-biphenyl]-4-yl)oxy)-3-methylpentan-2-yl)amino)benzamido)propanoic Acid], for which the “IC50 cAMP” value in assay [1] (setting [3]) was found to be 0.071 µM. The same compound had an IC50 in assay [2] (setting [4]) of 0.057 µM.

Take `Cc1cc(C)c(-c2ccc(C[C@H](Nc3ccc(C(=O)NCCC(=O)O)cc3)C(=O)Nc3ccc(C(C)(C)C)cc3)cc2)c(C)c1` [Compound 23-25]: the “IC50 cAMP” value in assay [1] stood at 3.1 µM. This compound yielded an IC50 in assay [2] of 0.458 µM.

On to `CCCC[C@@H](COc1ccc(-c2ccc(Cl)cc2Cl)c(OC)c1)Nc1ccc(C(=O)NCCC(=O)O)cc1` [Compound 13-9, (S)-3-(4-((1-((2′,4′-dichloro-2-methoxy-[1,1′-biphenyl]-4-yl)oxy)hexan-2-yl)amino)benzamido)propanoic Acid], for which, in assay [1] (setting [3]), the “IC50 cAMP” value amounted to 0.219 µM. Further, the IC50 in assay [2] (setting [4]) was determined as 0.054 µM.

As for `CC[C@H](C)[C@@H](COc1ccc(-c2ccc(Cl)cc2Cl)c(F)c1)Nc1ccc(C(=O)NCCC(=O)O)cc1` [Compound 8-11, 3-(4-(((2S,3S)-1-((2′,4′-dichloro-2-fluoro-[1,1′-biphenyl]-4-yl)oxy)-3-methylpentan-2-yl)amino)benzamido)propanoic Acid], in assay [1] (setting [3]), the “IC50 cAMP” value came out at 0.2691 µM. Besides, the IC50 in assay [2] (setting [4]) came to 0.051 µM.

For `CC[C@H](C)[C@@H](COc1cc(Cl)c(-c2ccc(C(F)(F)F)cc2F)cc1Cl)Nc1ccc(C(=O)NCCC(=O)O)cc1` [Compound 3-21], the “IC50 cAMP” value in assay [1] (setting [3]) is 0.653 µM. The same compound displayed an IC50 in assay [2] (setting [4]) of 0.295 µM.

Regarding `O=C(O)CCNC(=O)c1ccc(N[C@@H](Cc2ccccc2)C(=O)Nc2ccc(-c3ccc(Cl)cc3Cl)cc2)cc1` [Compound 23-14, (S)-3-(4-((1-((2′,4′-dichloro-[1,1′-biphenyl]-4-yl)amino)-1-oxo-3-phenylpropan-2-yl)amino)benzamido)propanoic Acid], the “IC50 cAMP” value in assay [1] (uM) is over 10 µM. In addition, the IC50 in assay [2] (uM) is over 10 µM.

On to `O=C(NCCS(=O)(=O)O)c1ccc(N[C@H](COc2ccc(-c3cc4ccccc4o3)cn2)c2ccc(-c3ccc(C(F)(F)F)cc3)cc2)cc1` [Compound 15-28, (S)-2-(4-((2-((5-(benzofuran-2-yl)pyridin-2-yl)oxy)-1-(4′-(trifluoromethyl)-[1,1′-biphenyl]-4-yl)ethyl)amino)benzamido)ethane-1-sulfonic Acid], for which, in assay [1], the “IC50 cAMP” value turned out to be 11.647 µM. For the same compound, the IC50 in assay [2] was determined as 0.1 µM.

As to `CCCC[C@@H](COc1ccc(-c2cc3ccccc3o2)c(F)c1)Nc1ccc(C(=O)NCCC(=O)O)cc1` [Compound 8-13, (S)-3-(4-((1-(4-(benzofuran-2-yl)-3-fluorophenoxy)hexan-2-yl)amino)benzamido) propanoic Acid], in assay [1] (setting [3]), the “IC50 cAMP” value was 0.084 µM. The IC50 in assay [2] (setting [4]) is 0.044 µM.

For `CC(C)C[C@H](Nc1ccc(C(=O)NCCC(=O)O)cc1)C(=O)Nc1ccc(-c2cc3ccccc3s2)cc1` [Compound 23-12, (S)-3-(4-((1-((4-(benzo[b]thiophen-2-yl)phenyl)amino)-4-methyl-1-oxopentan-2-yl)amino)benzamido)propanoic Acid], the “IC50 cAMP” value in assay [1] stood at 4.1 µM. Besides, the IC50 in assay [2] was 0.375 µM.

As to `CC(C)[C@@H](COc1ccc(-c2cc3ncccc3o2)cc1)Nc1ccc(C(=O)NCCC(=O)O)cc1` [Compound 1-41, (S)-3-(4-((1-(4-(furo[3,2-b]pyridin-2-yl)phenoxy)-3-methylbutan-2-yl)amino)benzamido)propanoic Acid], the “IC50 cAMP” value in assay [1] (setting [3]) worked out at 1.403 µM. Further, the IC50 in assay [2] (setting [4]) amounted to 0.227 µM.

As for `C[C@@H](Cc1ccc(-c2ccc(C(F)(F)F)cc2)cc1)Nc1ccc(C(=O)NCCC(=O)O)cc1` [Compound 19-3, (S)-3-(4-((1-(4′-(trifluoromethyl)-[1,1′-biphenyl]-4-yl)propan-2-yl)amino)benzamido)propanoic Acid], the “IC50 cAMP” value in assay [1] worked out at 2.719 µM. Moreover, in assay [2], the IC50 was found to be 2.73 µM.

Regarding `CC[C@H](C)[C@@H](COc1cc(C)c(-c2ccc(OC(F)(F)F)cc2)c(C)c1)Nc1ccc(C(=O)NCCC(=O)O)cc1` [Compound 2-8, 3-(4-(((2S,3S)-1-((2,6-dimethyl-4′-(trifluoromethoxy)-[1,1′-biphenyl]-4-yl)oxy)-3-methylpentan-2-yl)amino)benzamido)propanoic Acid], in assay [1] (setting [3]), the “IC50 cAMP” value is 0.602 µM. For the same compound, the IC50 in assay [2] (setting [4]) was determined as 0.627 µM.

In the case of `COc1cc(OC[C@@H](Nc2ccc(C(=O)NCCC(=O)O)cc2)C(C)C)ccc1-c1ccc(C(F)(F)F)cc1F` [Compound 13-8, (S)-3-(4-((1-((2′-fluoro-2-methoxy-4′-(trifluoromethyl)-[1,1′-biphenyl]-4-yl)oxy)-3-methylbutan-2-yl)amino)benzamido)propanoic Acid], the “IC50 cAMP” value in assay [1] (setting [3]) worked out at 0.0778 µM. In addition, the IC50 in assay [2] (setting [4]) stood at 0.079 µM.

In the case of `CC(C)(C)c1nnc(-c2ccc(OC[C@@H](Nc3ccc(C(=O)NCCC(=O)O)cc3)c3ccc(-c4ccc(C(F)(F)F)cc4)cc3)nc2)o1` [Compound 15-30, (S)-3-(4-((2-((5-(5-(tert-butyl)-1,3,4-oxadiazol-2-yl)pyridin-2-yl)oxy)-1-(4′-(trifluoromethyl)-[1,1′-biphenyl]-4-yl)ethyl)amino)benzamido)propanoic Acid], the “IC50 cAMP” value in assay [1] came to 18.257 µM. The IC50 in assay [2] is 2 µM.

For `Cc1c(-c2nnc([C@H](Cc3ccc(-c4ccc(C(F)(F)F)cc4)cc3)Nc3ccc(C(=O)NCCC(=O)O)cc3)o2)oc2ccccc12` [Compound 20-6, (S)-3-(4-((1-(5-(3-methylbenzofuran-2-yl)-1,3,4-oxadiazol-2-yl)-2-(4′-(trifluoromethyl)-[1,1′-biphenyl]-4-yl)ethyl)amino)benzamido)propanoic Acid], the “IC50 cAMP” value in assay [1] was over 30 µM. For the same compound, the IC50 in assay [2] was 2.68 µM.

The values are drawn from patent US11384060B2, “Amide compounds and use thereof” (ALPHALA CO., LTD., priority 2017, dated 2022).
